Our source for the Ki and activation values is US20260159519A1, “IMIDAZOPYRIDAZINE SUBSTITUTED BENZENE RING DERIVATIVE, PREPARATION METHOD, PHARMACEUTICAL COMPOSITION AND USE” (SHANGHAI SIMR BIOTECHNOLOGY CO., LTD., priority 2022, published 2026).

Like-named read-outs stand apart in the source and are kept apart here.

The target in assay [1] is T1, human α2-GABAA receptor (BZD site, membrane protein of HEK293 cells) (Homo sapiens, UniProt P18507+P47869).
T1 construct: expressed in transfected cells
The experiment in a line: Radioligand competitive binding assay (3H-flunitrazepam) at the BZD site of the α2-GABAA receptor. An excerpt: (§1) α subunit, β subunit, and γ subunit are essential for the formation of a complete and functional GABAA receptor. In this example of the present disclosure, HEK293 cells stably expressing the human α1-GABAA receptor (α1-GABAAR) and α2-GABAA receptor (α2-GABAAR) were constructed and separately selected using the lipofection method (Felgner, P. L., et al. Proceedings of the National Academy of Sciences, 1987, 84: 7413-7417). The α1-GABAAR-HEK293 cell model simultaneously expressed the α1 subunit (for protein sequence, see GenBank accession No.: NM_000806.5), the […] (for protein sequence, see GenBank accession No.: NM_000814.5), and the […] (for protein sequence, see GenBank accession No.: NM_000816.3). The α2-GABAAR-HEK293 cell model simultaneously expressed the α2 subunit (for protein sequence, see GenBank accession No.: NM_000807.4), the β3 subunit (for protein sequence, see GenBank accession No.: NM_000814.5), and the γ2 subunit (for protein sequence, see GenBank accession No.: NM_000816.3).
(§2) The above cell lines were subcultured. The α2-GABAAR-HEK293 cells were expanded for testing the affinity of compounds to the benzodiazepine (BZD) site of the GABAA receptor. During the passage process, some of the α1-GABAAR-HEK293 cells and α2-GABAAR-HEK293 cells were suspended and plated on a slide pre-treated with Poly-D-Lysine for electrophysiological testing (method referenced from patent CN107344936A, paragraph 0586).
The affinity of the compounds for the α2-GABAA receptor was determined by competing for the binding of ^3H-flunitrazepam (isotope ^3H-labelled flunitrazepam) to the BZD site on the membrane protein of HEK293 cells stably expressing the human α2-GABAAR.
Membrane preparation: Cells were suspended in 50 mM Tris-HCl buffer (pH=7.4), homogenized 10 times for 20 seconds with a homogenizer on ice, and centrifuged at 1000 g for 10 minutes at 4° C. The supernatant was taken, and the above steps were repeated. The supernatant was centrifuged at 4° C. (33800 g; Thermo, rotor: A27-8×50) for 60 minutes. The precipitate was resuspended in Tris buffer (50 mM Tris-HCl, 10 mM MgCl2, 0.5 mM EDTA, and 10% glycerol). The protein content was determined (BCA (bicinchoninic acid) protein quantification assay based on copper ion reduction, with a BCA kit purchased from Pierce (Annoron (Beijing) Biotechnology Co., Ltd.)), and 1 mL aliquots were prepared and stored at −80° C.
Radioligand competitive binding assay: This assay was performed in a 200 μL system (96-well plate) containing 100 μL of cell membrane. The concentration of ^3H-flunitrazepam was 1 nM, and the concentrations of the test compounds were in the range of […]. Flumazenil was used as a control. 1 μL of 2 mM flumazenil (final […]) was added to each low signal control (low control, LC) well, and 1 μL of dimethyl sulfoxide was added to each high signal control (high control, HC) well. The final concentration of target membrane protein was […]. All sample stock solutions of test compounds were 10 mM dimethyl sulfoxide solutions. All the samples were diluted to a concentration of 0.2 mM with dimethyl sulfoxide, and then subjected to a 4-fold serial dilution for a total of 8 working concentration gradients. The 96-well plate was sealed with a sealing membrane and then incubated on a shaker at room temperature for 1 hour. Meanwhile, a GF/C filter plate was soaked in plate soaking buffer (0.3% PEI (polyethyleneimine, purchased from Sigma-Aldrich, model: P314), stored at 4° C.) for at least 0.5 hours. After the binding incubation was completed, the cells were harvested onto the GF/C filter plate using a cell harvester and washed four times with plate washing buffer (50 mM Tris-HCl, pH 7.4, stored at 4° C.). After drying in an oven at 50° C. for 1 hour, the dried GF/C filter plate was bottom-sealed. The residual radioactivity on the filter membrane was detected by liquid scintillation counting.

For assay [2], the target named is T2, human α1-GABAA receptor (α1-GABAAR-HEK293 cells) (Homo sapiens, UniProt P14867+P18507).
T2 construct: expressed in transfected cells
The experiment in a line: Whole-cell patch-clamp electrophysiology, positive allosteric modulatory activity on α1-GABAA receptor. It counts as cell-based. The note with it: read-out: α1-GABAA positive allosteric modulatory activity.
From the text: as §1, §2
(§3) The positive regulatory activity of the test drugs on the α1-GABAA receptor and the α2-GABAA receptor was detected by the electrophysiological method. The specific method was as follows:
(§4) Compound concentration setting: The final concentration of the compounds used for screening was 100 nM. For cell lines expressing the α1-GABAA receptor, the concentration of GABA was 0.05 to 0.07 μM (approximately EC2-4). For cell lines expressing the α2-GABAA receptor, the concentration of GABA was 0.10 to 0.11 μM (approximately EC7-8). Electrophysiological testing was performed using the whole-cell patch-clamp technique, which can refer to the method reported in the literature (Nickolls, S. A., et al. British Journal of Pharmacology, 2018, 175: 708-725). The composition of the extracellular solution (ECS) for electrophysiology was as follows: 150 mM NaCl, 5 mM KCl, 2.5 mM CaCl2, 1 mM MgCl2, 10 mM HEPES, and 10 mM glucose (pH 7.4). The formulation of the intracellular solution (ICS) for electrophysiology was as follows: 140 mM CsCl, 11 mM EGTA, 10 mM HEPES, 2 mM CaCl2, 1 mM MgCl2, 4 mM MgATP, and 2 mM TEA (pH 7.3). GABA (γ-aminobutyric acid) powder was prepared into a mother liquor with pure water, which was then diluted in ECS. The compound was first prepared into a 4 mM mother liquor with dimethyl sulfoxide, which was then gradually diluted in the corresponding concentration of GABA-ECS. The solutions were freshly prepared prior to electrophysiological testing.
(§5) Electrophysiological signal acquisition was performed using an EPC 10 amplifier and PatchMaster software (HEKA) or an Axon 700B amplifier and Clampex software (AXON). The recording electrode was made through a drawing process using borosilicate glass, with an electrode resistance of 4 to 6 MΩ. Extracellular administration was performed using the ALA-VC-8PG™ system. A single, independently growing cell was selected. After the glass electrode formed a good seal with the cell, the membrane was ruptured to form the whole-cell configuration. The cell membrane potential was clamped at −60 mV and recorded in Gap-free mode. During the test, the extracellular solution was first applied extracellularly for approximately 20 seconds. After the baseline (Iprebaseline) stabilized, the extracellular solution was switched to GABA-ECS. At this point, the current induced by GABA (Igaba) could be detected. After approximately 10 to 20 seconds, when the current stabilized, the extracellular solution was switched to a mixture of the compound and GABA-ECS. […]
(In general: In patch-clamp work, channel activity is measured electrically.)

Assay [3] addresses T3, human α2-GABAA receptor (α2-GABAAR-HEK293 cells) (Homo sapiens, UniProt P18507+P47869).
T3 construct: expressed in transfected cells
As to the kind of experiment: Whole-cell patch-clamp electrophysiology, positive allosteric modulatory activity on α2-GABAA receptor. Type of assay: cell-based. The note with it: read-out: α2-GABAA positive allosteric modulatory activity.
From the text: as §1, §2, §3, §4, §5

Setting [4] is: competition with 1 nM 3H-flunitrazepam, Ki calculated from IC50, read-out: α2 Ki.

Consider `CCn1cnc2c(-c3ccc(F)c(-c4cc5c(cc4OC)N(C)C(=O)C(COC)O5)c3)cnnc21` (single isomer, unassigned) [Example 162], for which the Ki in assay [1] (setting [4]) is 14.5 nM. Moreover, the activation at 0.1 µM in assay [2] came out at 42%; in assay [3] it was 114%.
Taken in the same sequence, the figures for `CCn1cnc2c(-c3ccc(F)c(-c4cc5cccnc5cc4OC)c3)cnnc21` [Example 139, 6-(5-(7-Ethyl-7H-imidazo[4,5-c]pyridazin-4-yl)-2-fluorophenyl)-7-methoxyquinoline] were 13.2 nM, 35% and 122%.
The matching figures for `CCn1cnc2c(-c3ccc(F)c(-c4cc5c(cc4OC)-c4c(cnn4C)CO5)c3)cnnc21` [Example 10, 7-(5-(7-Ethyl-7H-imidazo[4,5-c]pyridazin-4-yl)-2-fluorophenyl)-8-methoxy-1-methyl-1,4-dihydrochromeno[4,3-c]pyrazole]: 26.9 nM, 1% and 98%.
Consider `CCn1cnc2c(-c3ccc(F)c(-c4cc5c(cc4OC)N(CCN4CCCC4)C(=O)CO5)c3)cnnc21` [Example 17, 7-(5-(7-Ethyl-7H-imidazo[4,5-c]pyridazin-4-yl)-2-fluorophenyl)-6-methoxy-4-(2-(pyrrolidin-1-yl)ethyl)-2H-benzo[b][1,4]oxazin-3(4H)-one], for which the Ki in assay [1] is 14.4 nM. In addition, the activation at 0.1 µM in assay [2] turned out to be 47%; in assay [3], 125%.
Consider `CCn1cnc2c(-c3ccc(F)c(-c4cc5c(cc4OC)ncn5C4COC4)c3)cnnc21` (single isomer, unassigned) [Example 135, 7-Ethyl-4-(4-fluoro-3-(5-methoxy-1-(oxetan-3-yl)-1H-benzo[d]imidazol-6-yl)phenyl)-7H-imidazo[4,5-c]pyridazine], for which, in assay [1] (setting [4]), the Ki is 28.2 nM. The activation at 0.1 µM in assay [2] worked out at 68%; in assay [3], 142%.
The matching figures for `CCn1cnc2c(-c3ccc(F)c(-c4ccc5c(nnn5C5CCOC5)c4COC)c3)cnnc21` (stereo not drawn) [Example 157, 7-Ethyl-4-(4-fluoro-3-(4-(methoxymethyl)-1-(tetrahydrofuran-3-yl)-1H-benzo[d][1,2,3]triazol-5-yl)phenyl)-7H-imidazo[4,5-c]pyridazine]: 23.3 nM, 50% and 99%.
With `CCn1cnc2c(-c3ccc(F)c(-c4ccc5c(ncn5C)c4OC)c3)cnnc21` [Example 126, 7-Ethyl-4-(4-fluoro-3-(4-methoxy-1-methyl-1H-benzo[d]imidazol-5-yl)phenyl)-7H-imidazo[4,5-c]pyridazine], in assay [1] (setting [4]), the Ki was 5.22 nM. Moreover, the activation at 0.1 µM in assay [2] is -35%; in assay [3], 90%.
For `CCn1cnc2c(-c3ccc(F)c(-c4cc5c(cc4OC)N(CCN4CCOCC4)C(=O)CO5)c3)cnnc21` [Example 18, 7-(5-(7-Ethyl-7H-imidazo[4,5-c]pyridazin-4-yl)-2-fluorophenyl)-6-methoxy-4-(2-morpholinoethyl)-2H-benzo[b][1,4]oxazin-3(4H)-one], the Ki in assay [1] (read-out: α2 Ki, competition with 1 nM 3H-flunitrazepam, Ki calculated from IC50) is 13.9 nM. Moreover, the activation at 0.1 µM in assay [2] turned out to be 30%; in assay [3] it was 106%.
As to `CCn1cnc2c(-c3ccc(F)c(-c4ccc5c(nnn5C)c4COC)c3)cnnc21` [Example 16, 7-Ethyl-4-(4-fluoro-3-(4-(methoxymethyl)-1-methyl-1H-benzo[d][1,2,3]triazol-5-yl)phenyl)-7H-imidazo[4,5-c]pyridazine], the Ki in assay [1] (setting [4]) was 11.6 nM. Besides, the activation at 0.1 µM in assay [2] was found to be 38%; in assay [3], 104%.
Taken in the same sequence, the figures for `CCn1cnc2c(-c3ccc(F)c(-c4cc5cn(C6CCOC6)nc5cc4OC)c3)cnnc21` (stereo not drawn) [Example 122, 7-Ethyl-4-(4-fluoro-3-(6-methoxy-2-(tetrahydrofuran-3-yl)-2H-indazol-5-yl)phenyl)-7H-imidazo[4,5-c]pyridazine] were 4.76 nM, 39% and 125%.
As to `CCn1cnc2c(-c3ccc(F)c(-c4cc5c(cc4OC)N(CCN(C)C)C(=O)CO5)c3)cnnc21` [Example 22, 4-(2-(Dimethylamino)ethyl)-7-(5-(7-ethyl-7H-imidazo[4,5-c]pyridazin-4-yl)-2-fluorophenyl)-6-methoxy-2H-benzo[b][1,4]oxazin-3(4H)-one], the Ki in assay [1] amounted to 10 nM. Also, the results for the activation at 0.1 µM in assay [2] and in assay [3] were 53% and 115%, respectively.
On to `CCn1cnc2c(-c3ccc(F)c(-c4cc5oc(=O)n(CC6CC6)c5cc4OC)c3)cnnc21` [Example 34, 3-(Cyclopropylmethyl)-6-(5-(7-ethyl-7H-imidazo[4,5-c]pyridazin-4-yl)-2-fluorophenyl)-5-methoxybenzo[d]oxazol-2(3H)-one], for which the Ki in assay [1] (setting [4]) is 5.71 nM. The activation at 0.1 µM came to 70% in assay [2] and 124% in assay [3].
`CCn1cnc2c(-c3ccc(F)c(-c4cc5cn(C6CCN(C)CC6F)nc5cc4OC)c3)cnnc21` (stereo not drawn) [Example 76, 7-Ethyl-4-(4-fluoro-3-(2-(3-fluoro-1-methylpiperidin-4-yl)-6-methoxy-2H-indazol-5-yl)phenyl)-7H-[4,5-c]pyridazine]: the Ki in assay [1] (setting [4]) was 2.43 nM. Further, the activation at 0.1 µM worked out at 61% in assay [2] and 107% in assay [3].

The Ki is the dissociation constant of the complex between target and ligand, obtained from inhibition or displacement.
